Test results as given in patent publication US8975235B2, “Lysophosphatidic acid receptor antagonists” (InterMune, Inc., priority 2011, dated 2015).
pEC50: −log10 of the molar value.

Molecular target: Human LPA1 (Homo sapiens, UniProt Q92633)
Test: Beta-Arrestin based assay for human LPA1R antagonists (PathHunter)
Type: cell-based
Parameters: host or cells: CHO
Conditions: CHO cells stably expressing ProLink tagged human LPA1R; agonist LPA 0.5 micromolar
Description: Beta-Arrestin Based Assays for Human LPA1R Antagonists and Agonists
A CHO cell line stably expressing the ProLink™ tagged human LPA1R was obtained from DiscoverX Inc, Fremont, Calif. In this system, β-Arrestin was fused to an N-terminal deletion mutant of β-galactosidase (termed the enzyme acceptor or EA), the human LPA1R was fused to a smaller (42 amino acids) weakly complementing fragment termed ProLink™. […] Cell handling and assays were performed according to protocols specified in the PathHunter® assays kits (DiscoverX, Fremont, Calif.). Assays were performed in quadruplicate in white 384 well plates. End point luminescence data were plotted and fit to a 4 parameter logistic function to obtain IC50 values. For antagonist assays, an […] concentration of agonist (LPA) equal to 0.5 micromolar was used.

Human LPA1, sequence (Q92633 whole entry): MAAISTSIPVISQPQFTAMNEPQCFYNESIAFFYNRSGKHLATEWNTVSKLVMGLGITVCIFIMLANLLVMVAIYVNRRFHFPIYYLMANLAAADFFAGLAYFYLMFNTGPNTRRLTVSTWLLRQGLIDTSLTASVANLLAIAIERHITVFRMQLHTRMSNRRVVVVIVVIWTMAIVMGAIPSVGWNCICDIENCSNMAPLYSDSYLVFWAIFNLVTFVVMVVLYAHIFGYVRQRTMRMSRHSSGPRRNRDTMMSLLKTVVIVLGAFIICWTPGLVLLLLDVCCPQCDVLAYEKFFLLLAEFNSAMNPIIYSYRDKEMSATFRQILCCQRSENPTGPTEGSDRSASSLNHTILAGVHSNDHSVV

Row | pEC50 | SMILES
1 | < 6.30 | C[C@@H](OC(=O)Nc1nn(C)nc1-c1ccc(-c2ccc(C3(C(=O)O)CC3)cc2)cc1)c1ccccc1 [Compound 225]
2 | < 6.30 | Cc1nsc(-c2ccc(-c3ccc(C4(C(=O)O)CC4)cc3)cc2)c1NC(=O)OCc1cccc(Cl)c1Cl [Compound 101]
3 | < 6.30 | Cc1noc(-c2ccc(-c3ccc(CC(=O)O)cc3)cc2)c1NS(=O)(=O)Cc1ccccc1 [Compound 17]
4 | > 7.30 | Cc1cc(-c2ccc(C3(C(=O)O)CC3)cc2)ccc1-c1snc(C)c1NC(=O)O[C@H](C)c1ccccc1Cl [Compound 115]
5 | 6.30 to 7.30 | Cc1nsc(-c2ccc3cc(C#CC4(C(=O)O)CC4)ccc3c2)c1NC(=O)OCc1ccccc1 [Compound 89]
6 | 6.30 to 7.30 | Cc1noc(C#Cc2ccc3cc(CC(=O)O)ccc3c2)c1NC(=O)O[C@H](C)c1ccccc1 [Compound 128]
7 | 6.30 to 7.30 | Cc1nsc(-c2ccc(-c3ccc(CC(=O)O)c(Cl)c3)cc2)c1NC(=O)O[C@H](C)c1ccccc1Cl [Compound 192]
8 | > 7.30 | Cc1nsc(C#Cc2ccc3cc(C4(C(=O)O)CC4)ccc3c2)c1NC(=O)O[C@H](C)c1ccccc1Cl [Compound 93]
9 | < 6.30 | O=C(Nc1snnc1-c1ccc(-c2ccc(C3(C(=O)O)CC3)cc2)cc1)OCc1ccccc1 [Compound 173]
10 | > 7.30 | Cc1nsc(-c2ccc(-c3ccc(C4(C(=O)O)CC4)cc3)cc2)c1NC(=O)OCc1cccc(F)c1 [Compound 96]
11 | 6.30 to 7.30 | Cc1nsc(-c2ccc(-c3ccc(C4(C(=O)O)CC4)cc3)cc2)c1NC(=O)OCc1ccccc1F [Compound 73]
12 | > 7.30 | Cc1nsc(-c2ccc3cc(C#CC4(C(=O)O)CC4)ccc3c2)c1NC(=O)O[C@H](C)c1ccccc1Cl [Compound 87]
13 | < 6.30 | Cc1ccc2c(NC(=O)O[C@H](C)c3ccccc3Cl)c(-c3ccc(-c4ccc(C5(C(=O)O)CC5)cc4)cc3)oc2c1 [Compound 52]
14 | > 7.30 | C[C@@H](OC(=O)Nc1nonc1-c1ccc(-c2ccc(C3(C(=O)O)CC3)cc2)cc1)c1ccccc1 [Compound 176]
15 | 6.30 to 7.30 | Cc1ccccc1COC(=O)Nc1c(C)nsc1-c1ccc(-c2ccc(C3(C(=O)O)CC3)cc2)cc1 [Compound 85]
16 | > 7.30 | Cc1noc(-c2ccc(-c3ccc4c(c3)CCC4C(=O)O)cc2)c1NC(=O)O[C@H](C)c1ccccc1Cl (some centres unmarked) [Compound 27]
17 | 6.30 to 7.30 | Cc1cc(-c2ccc(-c3snc(C)c3NC(=O)O[C@H](C)c3ccccc3Cl)cc2)ccc1CC(=O)O [Compound 118]
18 | < 6.30 | C[C@@H](OC(=O)Nc1nnn(C)c1-c1ccc(-c2ccc(C3(C(=O)O)CC3)cc2)cc1)c1ccccc1 [Compound 226]
19 | < 6.30 | O=C(O)Cc1ccc(N2CCN(C(=O)[C@@H](Cc3ccccc3)NC(=O)OCc3ccccc3)CC2)cc1 [Compound 266]
20 | > 7.30 | Cc1nsc(-c2cc(F)c(-c3ccc(C4(C(=O)O)CC4)cc3)cc2F)c1NC(=O)O[C@H](C)c1ccccc1Cl [Compound 181]
21 | > 7.30 | Cc1nsc(-c2ccc3c(c2)CCc2cc(C4(C(=O)O)CC4)ccc2-3)c1NC(=O)O[C@H](C)c1ccccc1 [Compound 245]
22 | < 6.30 | CC(C)NC(=O)Nc1ccnc(-c2ccc(-c3ccc(CC(=O)O)cc3)cc2)c1 [reference compound]

Row | pEC50 | SMILES
23 | < 6.30 | C[C@@H](OC(=O)Nc1nncn1-c1ccc(-c2ccc(C3(C(=O)O)CC3)cc2)cc1)c1ccccc1 [Compound 158]
24 | < 6.30 | CC(C)NC(=O)Nc1ncncc1-c1ccc(-c2ccc(CC(=O)O)cc2)cc1 [reference compound]
25 | 6.30 to 7.30 | Cc1noc(-c2ccc(-c3ccc(N4CCC[C@@H](C(=O)O)C4)cc3)cc2)c1NC(=O)O[C@H](C)c1ccccc1Cl [Compound 138]
26 | < 6.30 | O=C(Nc1nncn1-c1ccc(-c2ccc(C3(C(=O)O)CC3)cc2)cc1)OCc1ccccc1 [Compound 160]
27 | 6.30 to 7.30 | Cc1nsc(-c2ccc(-c3ccc(C4(C(=O)O)CC4)cc3)cc2)c1NC(=O)O[C@@H](C)C1=C(Cl)CCCC1 [Compound 219]
28 | < 6.30 | Cc1nc(NC(=O)O[C@H](C)c2ccccc2)n(-c2ccc(-c3ccc(C4(C(=O)O)CC4)cc3)cc2)n1 [Compound 161]
29 | < 6.30 | O=C(O)Cc1ccc(N2CCN(C(=O)CNC(=O)OCc3ccccc3)CC2)cc1 [Compound 269]
30 | 6.30 to 7.30 | Cc1nsc(-c2ccc(-c3ccc(CC(=O)O)c(F)c3)cc2)c1NC(=O)O[C@H](C)c1ccccc1Cl [Compound 196]
31 | < 6.30 | CCCCC(=O)NCC(=O)c1ccc(-c2ccc(CC(=O)O)cc2)cc1 [reference compound]
32 | > 7.30 | Cc1nsc(-c2ccc(-c3ccc(C4(C(=O)O)CC4)cc3)cc2)c1NC(=O)O[C@H](C)C1=C(Cl)CCC1 (single isomer, unassigned) [Compound 216]
33 | > 7.30 | C[C@@H](OC(=O)Nc1ncoc1-c1ccc(-c2ccc(C3(C(=O)O)CC3)cc2)cc1)c1ccccc1Cl [Compound 144]
34 | 6.30 to 7.30 | Cc1noc(-c2ccc(-c3ccc4c(c3)CCCC4C(=O)O)cc2)c1NC(=O)O[C@H](C)c1ccccc1Cl (some centres unmarked) [Compound 21]
35 | < 6.30 | Cc1nsc(-c2ccc(-c3ccc(C4(C(=O)O)CC4)cc3)cc2)c1NC(=O)O[C@@H](C)c1ccccc1 [Compound 236]
36 | > 7.30 | Cc1nsc(-c2ccc(-c3ccc(C4(C(=O)O)CC4)c(F)c3)cc2)c1NC(=O)O[C@H](C)c1ccccc1Cl [Compound 197]
37 | 6.30 to 7.30 | Cc1noc(-c2ccc(-c3ccc(N4CCC[C@H](C(=O)O)C4)cc3)cc2)c1NC(=O)O[C@H](C)c1ccccc1Cl [Compound 139]
38 | 6.30 to 7.30 | C[C@@H](OC(=O)Nc1nsnc1-c1ccc(-c2ccc(C3(C(=O)O)CC3)cc2)cc1)c1ccccc1 [Compound 211]
39 | 6.30 to 7.30 | Cc1nsc(-c2ccc(-c3ccc(C4(C(=O)O)CC4)cn3)cc2)c1NC(=O)O[C@H](C)c1ccccc1Cl [Compound 252]
40 | < 6.30 | O=C(O)Cc1ccc(C2CCN(C(=O)[C@@H](Cc3ccccc3)NC(=O)OCc3ccccc3)CC2)cc1 [Compound 257]
41 | 6.30 to 7.30 | C[C@@H](OC(=O)Nc1ncsc1-c1ccc(-c2ccc(C3(C(=O)O)CC3)cc2)cc1)c1ccccc1 [Compound 109]
42 | < 6.30 | C[C@@H](OC(=O)Nc1oc2ccccc2c1-c1ccc(-c2ccc(C3(C(=O)O)CC3)cc2)cc1)c1ccccc1 [Compound 208]
43 | 6.30 to 7.30 | Cc1nsc(-c2ccc(-c3ccc(C4(C(=O)O)CC4)cc3)nc2)c1NC(=O)O[C@H](C)c1ccccc1Cl [Compound 251]
44 | < 6.30 | CCCC(=O)Nc1ccnc(-c2ccc(-c3ccc(CC(=O)O)cc3)cc2)c1 [reference compound]

Row | pEC50 | SMILES
45 | > 7.30 | C[C@@H](OC(=O)Nc1c(Cl)nsc1-c1ccc(-c2ccc(C3(C(=O)O)CC3)cc2)cc1)c1ccccc1 [Compound 112]
46 | > 7.30 | Cc1noc(-c2ccc(-c3ccc(C4(C(=O)O)CN(S(C)(=O)=O)C4)cc3)cc2)c1NC(=O)O[C@H](C)c1ccccc1Cl [Compound 38]
47 | > 7.30 | Cc1nsc(-c2ccc(-c3ccc(C4(C(=O)O)CC4)cc3)cc2)c1NC(=O)O[C@H](C)C1=C(Cl)CCCC1 [Compound 218]
48 | > 7.30 | C[C@@H](OC(=O)Nc1oncc1-c1ccc(-c2ccc(C3(C(=O)O)CC3)cc2)cc1)c1ccccc1 [Compound 206]
49 | > 7.30 | COC(=O)N1CC(C(=O)O)(c2ccc(-c3ccc(-c4onc(C)c4NC(=O)O[C@H](C)c4ccccc4Cl)cc3)cc2)C1 [Compound 37]
50 | 6.30 to 7.30 | Cc1nsc(-c2c(F)cc(-c3ccc(C4(C(=O)O)CC4)cc3)cc2F)c1NC(=O)O[C@H](C)c1ccccc1 [Compound 183]
51 | > 7.30 | Cc1nsc(-c2ccc(-c3ccc(C4(C(=O)O)CC4)cc3)cc2Cl)c1NC(=O)O[C@H](C)c1ccccc1Cl [Compound 187]
52 | 6.30 to 7.30 | Cc1nsc(-c2ccc(-c3ccc(C4(C(=O)O)CC4)cc3)cc2)c1NC(=O)OCc1ccc(Cl)cc1 [Compound 100]
53 | < 6.30 | CCC(=O)Nc1ccnc(-c2ccc(-c3ccc(CC(=O)O)cc3)cc2)c1 [reference compound]
54 | > 7.30 | Cc1cc(-c2ccc(C3(C(=O)O)CC3)cc2)c(F)cc1-c1snc(C)c1NC(=O)O[C@H](C)c1ccccc1Cl [Compound 124]
55 | > 7.30 | Cc1nsc(-c2cc(Cl)c(-c3ccc(C4(C(=O)O)CC4)cc3)cc2F)c1NC(=O)O[C@H](C)c1ccccc1Cl [Compound 120]
56 | > 7.30 | Cc1noc(-c2ccc3c(c2)CCc2cc(C4(C(=O)O)CC4)ccc2-3)c1NC(=O)O[C@H](C)c1ccccc1 [Compound 247]
57 | < 6.30 | CC(OC(=O)Nc1n[nH]nc1-c1ccc(-c2ccc(C3(C(=O)O)CC3)cc2)cc1)c1ccccc1 (centres unmarked) [Compound 223]
58 | 6.30 to 7.30 | Cc1nsc(-c2ccc(-c3ccc(CC(=O)O)cc3F)cc2)c1NC(=O)O[C@H](C)c1ccccc1Cl [Compound 195]
59 | 6.30 to 7.30 | Cc1noc(C#Cc2cc3sc(C(=O)O)cc3s2)c1NC(=O)O[C@H](C)c1ccccc1 [Compound 254]
60 | 6.30 to 7.30 | Cc1noc(-c2ccc(-c3ccc(N4CCC[C@@H](C(=O)O)C4)cc3)cc2)c1NC(=O)O[C@H](C)c1ccccc1 [Compound 136]
61 | 6.30 to 7.30 | Cc1nsc(-c2ccc(-c3ccc(C4(C(=O)O)CC4)cc3)cc2)c1NC(=O)OCc1ccc(F)cc1 [Compound 98]
62 | > 7.30 | C[C@@H](OC(=O)Nc1nonc1-c1ccc(-c2ccc(C3(C(=O)O)CC3)cc2)cc1)c1ccccc1Cl [Compound 177]
63 | < 6.30 | CCOC(=O)Cc1ccc(-c2ccc(-c3onc(C)c3NS(=O)(=O)c3ccccc3)cc2)cc1 [Compound 18]
64 | > 7.30 | C[C@@H](OC(=O)Nc1c(-c2ccc(-c3ccc(C4(C(=O)O)CC4)cc3)cc2)oc2ccccc12)c1ccccc1Cl [Compound 42]
65 | > 7.30 | Cc1nsc(-c2ccc(-c3ccc(C4(C(=O)O)CC4)cc3)c(F)c2)c1NC(=O)O[C@H](C)c1ccccc1Cl [Compound 117]
